Numbers after ± are expanded uncertainties.
Assay: xn = mol fraction of the nth substance listed
Conditions: 100 kPa, Liquid; for viscosity: Capillary tube (Ostwald / Ubbelohde) method; for speed of sound: Frequency=2 MHz, Linear variable-path acoustic interferometer; for mass density: Vibrating tube method

Nc1cccc(Cl)c1 [3-chlorobenzenamine] + OCCc1ccccc1
Conditions	mass density [kg/m3]	speed of sound [m/s]	viscosity [mPa·s]
303.15 K, x1 = 0.0855	1027.23 ± 4	1509.6 ± 9.2	8.643 ± 1
303.15 K, x1 = 0.1746	1043.06 ± 4	1511 ± 9.2	8.223 ± 1
303.15 K, x1 = 0.2665	1059.74 ± 4	1512.3 ± 9.2	7.787 ± 1
303.15 K, x1 = 0.3613	1077.27 ± 4	1513.6 ± 9.2	7.335 ± 1
303.15 K, x1 = 0.4491	1093.81 ± 4	1514.6 ± 9.2	6.916 ± 1
303.15 K, x1 = 0.5201	1107.41 ± 4	1515.4 ± 9.2	6.576 ± 1
303.15 K, x1 = 0.6594	1134.71 ± 4	1516.5 ± 9.2	5.907 ± 1
303.15 K, x1 = 0.7692	1156.83 ± 4	1517 ± 9.3	5.377 ± 1
303.15 K, x1 = 0.8787	1179.49 ± 4	1517.3 ± 9.3	4.846 ± 1
303.15 K, x1 = 1	1205.32 ± 4	1517.5 ± 9.3	4.255 ± 1
308.15 K, x1 = 0.0855	1023.5 ± 4	1492.2 ± 9.1	6.915 ± 1
308.15 K, x1 = 0.1746	1039.28 ± 4	1493.6 ± 9.1	6.623 ± 1
308.15 K, x1 = 0.2665	1055.88 ± 4	1495 ± 9.1	6.319 ± 1
308.15 K, x1 = 0.3613	1073.34 ± 4	1496.3 ± 9.1	6.005 ± 1
308.15 K, x1 = 0.4491	1089.81 ± 4	1497.4 ± 9.1	5.712 ± 1
308.15 K, x1 = 0.5201	1103.34 ± 4	1498.3 ± 9.1	5.473 ± 1
308.15 K, x1 = 0.6594	1130.52 ± 4	1499.6 ± 9.2	5.005 ± 1
308.15 K, x1 = 0.7692	1152.56 ± 4	1500.4 ± 9.2	4.632 ± 1
308.15 K, x1 = 0.8787	1175.08 ± 4	1500.9 ± 9.2	4.259 ± 1
308.15 K, x1 = 1	1200.75 ± 4	1501.2 ± 9.2	3.842 ± 1
313.15 K, x1 = 0.0855	1019.67 ± 4	1472 ± 9	5.867 ± 1
313.15 K, x1 = 0.1746	1035.39 ± 4	1473.4 ± 9	5.638 ± 1
313.15 K, x1 = 0.2665	1051.92 ± 4	1474.6 ± 9	5.398 ± 1
313.15 K, x1 = 0.3613	1069.28 ± 4	1475.8 ± 9	5.149 ± 1
313.15 K, x1 = 0.4491	1085.67 ± 4	1476.9 ± 9	4.918 ± 1
313.15 K, x1 = 0.5201	1099.15 ± 4	1477.7 ± 9	4.729 ± 1
313.15 K, x1 = 0.6594	1126.19 ± 4	1478.9 ± 9	4.357 ± 1
313.15 K, x1 = 0.7692	1148.11 ± 4	1479.7 ± 9	4.061 ± 1
313.15 K, x1 = 0.8787	1170.53 ± 4	1480.3 ± 9	3.763 ± 1
313.15 K, x1 = 1	1196.02 ± 4	1480.3 ± 9	3.43 ± 1
318.15 K, x1 = 0.0855	1015.75 ± 4	1457.9 ± 8.9	4.827 ± 1
318.15 K, x1 = 0.1746	1031.43 ± 4	1459.1 ± 8.9	4.659 ± 1
318.15 K, x1 = 0.2665	1047.87 ± 4	1460.2 ± 8.9	4.483 ± 1
318.15 K, x1 = 0.3613	1065.15 ± 4	1461.2 ± 8.9	4.3 ± 1
318.15 K, x1 = 0.4491	1081.46 ± 4	1462.1 ± 8.9	4.129 ± 1
318.15 K, x1 = 0.5201	1094.86 ± 4	1462.8 ± 8.9	3.989 ± 1
318.15 K, x1 = 0.6594	1121.8 ± 4	1463.9 ± 8.9	3.714 ± 1
318.15 K, x1 = 0.7692	1143.63 ± 4	1464.6 ± 8.9	3.494 ± 1
318.15 K, x1 = 0.8787	1165.92 ± 4	1464.8 ± 8.9	3.272 ± 1
318.15 K, x1 = 1	1191.25 ± 4	1464.8 ± 8.9	3.022 ± 1

OCCCl [1-chloro-2-hydroxyethane] + Nc1cccc(Cl)c1
Conditions	mass density [kg/m3]	speed of sound [m/s]	viscosity [mPa·s]
303.15 K, x2 = 0	1192.12 ± 4	1342.8 ± 8.2	2.578 ± 1
303.15 K, x2 = 0.0844	1194.38 ± 4	1365.5 ± 8.3	2.728 ± 1
303.15 K, x2 = 0.1759	1196.5 ± 4	1388.6 ± 8.5	2.888 ± 1
303.15 K, x2 = 0.2675	1198.32 ± 4	1410 ± 8.6	3.046 ± 1
303.15 K, x2 = 0.3622	1199.9 ± 4	1430.2 ± 8.7	3.207 ± 1
303.15 K, x2 = 0.4808	1201.48 ± 4	1452.7 ± 8.9	3.408 ± 1
303.15 K, x2 = 0.5814	1202.58 ± 4	1469.7 ± 9	3.576 ± 1
303.15 K, x2 = 0.6862	1203.51 ± 4	1484.7 ± 9.1	3.749 ± 1
303.15 K, x2 = 0.7938	1204.28 ± 4	1498 ± 9.1	3.925 ± 1
303.15 K, x2 = 0.8902	1204.84 ± 4	1508.2 ± 9.2	4.081 ± 1
308.15 K, x2 = 0	1186.63 ± 4	1328.5 ± 8.1	2.259 ± 1
308.15 K, x2 = 0.0844	1189.08 ± 4	1351.3 ± 8.2	2.402 ± 1
308.15 K, x2 = 0.1759	1191.33 ± 4	1374.1 ± 8.4	2.553 ± 1
308.15 K, x2 = 0.2675	1193.26 ± 4	1395.1 ± 8.5	2.703 ± 1
308.15 K, x2 = 0.3622	1194.92 ± 4	1415 ± 8.6	2.855 ± 1
308.15 K, x2 = 0.4808	1196.62 ± 4	1437.1 ± 8.8	3.045 ± 1
308.15 K, x2 = 0.5814	1197.79 ± 4	1454 ± 8.9	3.203 ± 1
308.15 K, x2 = 0.6862	1198.8 ± 4	1469.2 ± 9	3.367 ± 1
308.15 K, x2 = 0.7938	1199.65 ± 4	1482.5 ± 9	3.532 ± 1
308.15 K, x2 = 0.8902	1200.24 ± 4	1492.7 ± 9.1	3.679 ± 1
313.15 K, x2 = 0	1178.05 ± 4	1315.5 ± 8	1.852
313.15 K, x2 = 0.0844	1181.05 ± 4	1337.6 ± 8.2	1.995
313.15 K, x2 = 0.1759	1183.78 ± 4	1359.6 ± 8.3	2.147 ± 1
313.15 K, x2 = 0.2675	1186.13 ± 4	1379.6 ± 8.4	2.296 ± 1
313.15 K, x2 = 0.3622	1188.2 ± 4	1398.4 ± 8.5	2.448 ± 1
313.15 K, x2 = 0.4808	1190.36 ± 4	1419.6 ± 8.7	2.636 ± 1
313.15 K, x2 = 0.5814	1191.88 ± 4	1435.7 ± 8.8	2.795 ± 1
313.15 K, x2 = 0.6862	1193.24 ± 4	1450.5 ± 8.9	2.958 ± 1
313.15 K, x2 = 0.7938	1194.4 ± 4	1463.3 ± 8.9	3.123 ± 1
313.15 K, x2 = 0.8902	1195.27 ± 4	1472.8 ± 9	3.269 ± 1
318.15 K, x2 = 0	1170.87 ± 4	1301.2 ± 7.9	1.564
318.15 K, x2 = 0.0844	1173.91 ± 4	1323.6 ± 8.1	1.698
318.15 K, x2 = 0.1759	1176.26 ± 4	1345.1 ± 8.2	1.84
318.15 K, x2 = 0.2675	1178.79 ± 4	1365.6 ± 8.3	1.978
318.15 K, x2 = 0.3622	1181.24 ± 4	1384.1 ± 8.4	2.118 ± 1
318.15 K, x2 = 0.4808	1184.01 ± 4	1404.8 ± 8.6	2.292 ± 1
318.15 K, x2 = 0.5814	1185.85 ± 4	1420.8 ± 8.7	2.438 ± 1
318.15 K, x2 = 0.6862	1187.52 ± 4	1435.5 ± 8.8	2.589 ± 1
318.15 K, x2 = 0.7938	1189.32 ± 4	1448.6 ± 8.8	2.741 ± 1
318.15 K, x2 = 0.8902	1190.2 ± 4	1458 ± 8.9	2.874 ± 1
